Source: patent US6867185B2 (Bristol-Myers Squibb Company, priority 2001, dated 2005)
Structures can show the parent of a compound that is named as a salt.

Assays:
[1] = system: HCV replicon in Huh7 cells; test: HCV replicon cell-based assay (replicon FRET assay); set-up: species or system HCV strain 1B; conditions: Hepatitis C virus, Huh-7, HCV replicon cell assay; EC50 ranges
Text: An HCV replicon whole cell system was established as described by Lohmann V, Korner F, Koch J, Herian U, Theilmann L, Bartenschlager R., Science 285 (5424):110-3 (1999). This system enabled us to evaluate the effects of our HCV Protease compounds on HCV RNA replication. Briefly, using the HCV strain 1B sequence described in the Lohmann paper (Assession number:AJ238799), an HCV cDNA was generated encoding the 5′ internal ribosome entry site (IRES), the neomycin resistance gene, the EMCV (encephalomyocarditis viurs)-IRES and the HCV nonstructural proteins, NS3-NS5B, and 3′ non-translated region (NTR). In vitro transcripts of the cDNA were transfected into the human hepatoma cell line, Huh7. […] Resulting cell lines were characterized for positive and negative strand RNA production and protein production over time.
Huh7 cells, constitutively expressing the HCV replicon, were grown in Dulbecco's Modified Eagle Media (DMEM) containing 10% Fetal calf serum (FCS) and 1 mg/ml G418 (Gibco-BRL). Cells were seeded the night before (1.5×10^4 cells/well) in 96-well tissue-culture sterile plates. Compound and no compound controls were prepared in DMEM containing 4% FCS, 1:100 Penicillin/Streptomysin, 1:100 L-glutamine and 5% DMSO in the dilution plate (0.5% DMSO final concentration in the assay). Compound/DMSO mixes were added to the cells and incubated for 4 days at 37° C. After 4 days, plates were rinsed thoroughly with Phosphate-Buffered Saline (PBS) (3 times 150 μl). The cells were lysed with 25 μl of a lysis assay reagent containing the FRET peptide (RET S1, as described for the in vitro enzyme assay). The lysis assay reagent was made from 5× cell Luciferase cell culture lysis reagent(Promega #E153A) diluted to 1× with distilled water, NaCl added to 150 mM final, the FRET peptide diluted to 10 μM final from a 2 mM stock in 100% DMSO. The plate was then placed into the Cytofluor 4000 instrument which had been set to 340 nm excitation/490 emission, automatic mode for 21 cycles and the plate read in a kinetic mode. EC50 determinations were carried out as described for the IC50 determinations.

[2] = target: T1, HCV NS3/4A protease complex, BMS strain (genotype 1a) (Hepatitis C virus genotype 1a, UniProt P27958, C1454S/C1711G); test: Recombinant HCV NS3/4A protease complex FRET peptide assay (BMS strain); assay type: biochemical; conditions: IC50, HCV NS3/4A protease FRET assay in vitro; IC50 ranges
T1 construct: recombinant HCV NS3/4A protease complex (amino'acids 1027 to 1711); inferred from the pET21b vector and Ni-NTA purification; made in house; host or cells: Escherichia coli BL21 (DE3), pET21b
T1 sequence (P27958 1027-1711 C1454S/C1711G, one chain of several): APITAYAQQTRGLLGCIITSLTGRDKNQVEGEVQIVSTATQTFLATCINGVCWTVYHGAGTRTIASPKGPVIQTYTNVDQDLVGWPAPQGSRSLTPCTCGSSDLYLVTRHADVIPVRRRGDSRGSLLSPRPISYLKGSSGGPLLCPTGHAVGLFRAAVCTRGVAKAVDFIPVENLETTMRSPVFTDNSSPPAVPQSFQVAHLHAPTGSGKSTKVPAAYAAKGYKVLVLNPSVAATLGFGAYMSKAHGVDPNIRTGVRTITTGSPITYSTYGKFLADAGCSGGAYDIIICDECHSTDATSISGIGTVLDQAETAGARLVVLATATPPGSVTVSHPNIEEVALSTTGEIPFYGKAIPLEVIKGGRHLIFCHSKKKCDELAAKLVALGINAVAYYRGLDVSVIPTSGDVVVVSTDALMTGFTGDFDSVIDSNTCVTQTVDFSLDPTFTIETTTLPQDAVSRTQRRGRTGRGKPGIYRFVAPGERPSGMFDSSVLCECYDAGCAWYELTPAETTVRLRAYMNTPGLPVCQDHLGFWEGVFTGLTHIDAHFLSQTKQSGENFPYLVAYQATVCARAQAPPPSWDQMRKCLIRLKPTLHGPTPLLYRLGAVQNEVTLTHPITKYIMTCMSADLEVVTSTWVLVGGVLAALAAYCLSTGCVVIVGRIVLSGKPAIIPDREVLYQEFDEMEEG
Text: The purpose of this in vitro assay was to measure the inhibition of HCV NS3 protease complexes, derived from the BMS, H77C or J4L6S strains, as described below, by compounds of the present invention. This assay provides an indication of how effective compounds of the present invention would be in inhibiting HCV proteolytic activity.
Serum from an HCV-infected patient was obtained from Dr. T. Wright, San Francisco Hospital. An engineered full-length cDNA (compliment deoxyribonucleic acid) template of the HCV genome (BMS strain) was constructed from DNA fragments obtained by reverse transcription-PCR (RT-PCR) of serum RNA (ribonucleic acid) and using primers selected on the basis of homology between other genotype 1a strains. From the determination of the entire genome sequence, a genotype 1a was assigned to the HCV isolate according to the classification of Simmonds et al. (See P Simmonds, K A Rose, S Graham, S W Chan, F McOmish, B C Dow, E A Follett, P L Yap and H Marsden, J. Clin. Microbiol., 31 (6), 1493-1503 (1993)). […] The infectious clones, H77C (1a genotype) and J4L6S (1b genotype) were obtained from R. Purcell (N1H) and the sequences are published in Genbank (AAB67036, see Yanagi, M., Purcell, R. H., Emerson, S. U. and Bukh, J. Proc. Natl. Acad. Sci. U.S.A. 94 (16), 8738-8743 (1997); AF054247, see Yanagi, M., St Claire, M., Shapiro, M., Emerson, S. U., Purcell, R. H. and Bukh, J, Virology 244 (1), 161-172. (1998)).
The BMS, H77C and J4L6S strains were used for production of recombinant NS3/4A protease complexes. DNA encoding the recombinant HCV NS3/4A protease complex (amino'acids 1027 to 1711) for these strains were manipulated as described by P. Gallinari et al. (see Gallinari P, Paolini C, Brennan D, Nardi C, Steinkuhler C, De Francesco R. Biochemistry. 38 (17):5620-32, (1999)). Briefly, a three-lysine solubilizing tail was added at the 3′-end of the NS4A coding region. The cysteine in the P1 position of the NS4A-NS4B cleavage site (amino acid 1711) was changed to a glycine to avoid the proteolytic cleavage of the lysine tag. Furthermore, a cysteine to serine mutation was introduced by PCR at amino acid position 1454 to prevent the autolytic cleavage in the NS3 helicase domain. The variant DNA fragment was cloned in the pET21b bacterial expression vector (Novagen)and the NS3/4A complex was expressed in Escherichia. coli strain BL21 (DE3) (Invitrogen) following the protocol described by P. Gallinari et al. (see Gallinari P, Brennan D, Nardi C, Brunetti M, Tomei L, Steinkuhler C, De Francesco R., J. Virol. 72 (8):6758-69 (1998)) with modifications. Briefly, NS3/4A expression was induced with 0.5 mM Isopropyl β-D-1-thiogalactopyranoside (IPTG) for 22 hr at 20° C. A typical fermentation (10L) yielded approximately 80 g of wet cell paste. The cells were resuspended in lysis buffer (10 mL/g) consisting of 25 mM N-(2-Hydroxyethyl)Piperazine-N′-(2-Ethane Sulfonic acid) (HEPES), pH 7.5, 20% glycerol, 500 mM Sodium Chloride (NaCl), 0.5% Triton-X100, 1 ug/ml lysozyme, 5 mM Magnesium Chloride (MgCl2), 1 ug/ml Dnasel, 5 mM β-Mercaptoethanol (OME), Protease inhibitor-Ethylenediamine Tetraacetic acid (EDTA) free (Roche), homogenized and incubated for 20 mins at 4° C. The homogenate was sonicated and clarified by ultra-centrifugation at 235000 g for 1 hr at 4° C. Imidazole was added to the supernatant to a final concentration of 15 mM and the pH adjusted to 8.0. The crude protein extract was loaded on a Nickel-Nitrilotriacetic acid (Ni-NTA) column pre-equilibrated with buffer B (25 mM HEPES, pH 8.0, 20% glycerol, 500 mM NaCl, 0.5% Triton-X100, 15 mM imidazole, 5 mM βME). The sample was loaded at a flow rate of 1 mL/min. The column was washed with 15 column volumes of buffer C (same as buffer B except with 0.2% Triton-X100). The protein was eluted with 5 column volumes of buffer D (same as buffer C except with 200 mM Imidazole). […]

Row | Compound | EC50 [1] | IC50 [2]
1 | COc1ccc2c(O[C@@H]3C[C@H]4C(=O)N[C@]5(C(=O)NS(=O)(=O)C6CC6)CC5/C=C\CCCSC[C@H](NC(=O)OC(C)(C)C)C(=O)N4C3)cc(-c3ccccc3)nc2c1 (stereo partly drawn) [Compound 31, (1S,4R,6S,14S,18R)-7-cis-[4-Cyclopropanesulfonylaminocarbonyl-18-(7-methoxy-2-phenyl-quinolin-4-yloxy)-2,15-dioxo-12-thia-3,16-diazatricyclo[14.3.0.0^4,6]nonadec-7-en-14-yl]-carbamic acid tert-butyl ester] | < 50 nM | < 50 nM
2 | CC(C)(C)OC(=O)N[C@H]1CCCCC/C=C\[C@@H]2C[C@@]2(C(=O)NS(C)(=O)=O)NC(=O)[C@@H]2C[C@@H](Oc3ccnc4ccccc34)CN2C1=O [Compound 30, (1S,4R,6S,14S,18R)-7-cis-[4-Methanesulfonylaminocarbonyl-2,15-dioxo-18-(quinolin-4-yloxy)-3,16-diazatricyclo[14.3.0.0^4,6]nonadec-7-en-14-yl]-carbamic acid tert-butyl ester] | < 5000 nM | < 50 nM
3 | COc1ccc2c(O[C@@H]3C[C@H]4C(=O)N[C@]5(C(=O)NS(=O)(=O)C6CC6)C[C@H]5CCCCCCC[C@H](N)C(=O)N4C3)cc(-c3ccccc3)nc2c1 [Compound 16, (1S,4R,6R,14S,18R)-Cyclopropanesulfonic acid [14-amino-18-(7-methoxy-2-phenylquinolin-4-yloxy)-2,15-dioxo-3,16-diazatricyclo[14.3.0.0^4,6]-nonadecane-4-carbonyl]amide dihydrochloride] | < 50 nM | < 50 nM
4 | CC(C)(C)OC(=O)N[C@H]1CCCCC/C=C\[C@@H]2C[C@@]2(C(=O)NS(=O)(=O)C2CC2)NC(=O)[C@@H]2C[C@@H](Oc3ccnc4ccccc34)CN2C1=O [Compound 29, (1S,4R,6S,14S,18R)-7-cis-[4-Cyclopropanesulfonylaminocarbonyl-2,15-dioxo-18-(quinolin-4-yloxy)-3,16-diazatricyclo[14.3.0.0^4,6]nonadec-7-en-14-yl]carbamic acid tert-butyl ester] | < 50 nM | < 50 nM
5 | COc1ccc2c(O[C@@H]3C[C@H]4C(=O)N[C@]5(C(=O)NS(=O)(=O)C6CC6)C[C@H]5CCCCCCC[C@H](NC(=O)OC(C)(C)C)C(=O)N4C3)cc(-c3ccccc3)nc2c1 [Compound 15, (1S,4R,6R,14S,18R)-[4-Cyclopropanesulfonylaminocarbonyl-18-(7-methoxy-2-phenylquinolin-4-yloxy)-2,15-dioxo-3,16-diazatricyclo-[14.3.0.0^4,6]nonadec-14-yl]carbamic acid tert-butyl ester] | < 50 nM | < 50 nM
6 | COc1ccc2c(O[C@@H]3C[C@H]4C(=O)N[C@]5(C(=O)NS(=O)(=O)C6CC6)C[C@H]5CCCCCCC[C@H](NC(=O)OCC(C)(C)C)C(=O)N4C3)cc(-c3ccccc3)nc2c1 [Compound 22, (1S,4R,6R,14S,18R)-[4-Cyclopropanesulfonylaminocarbonyl-18-(7-methoxy-2-phenylquinolin-4-yloxy)-2,15-dioxo-3,16-diazatricyclo[14.3.0.0^4,6]-nonadec-14-yl]carbamic acid 2,2-dimethylpropyl ester] | < 50 nM | < 50 nM
7 | COc1ccc2c(O[C@@H]3C[C@H]4C(=O)N[C@]5(C(=O)NS(=O)(=O)C6CC6)CC5/C=C\CCCCC[C@H](NC(=O)NC(C)(C)C)C(=O)N4C3)cc(-c3ccccc3)nc2c1 (stereo partly drawn) [Compound 20, (1S,4R,6S,14S,18R)-7-cis-Cyclopropanesulfonic acid [14-(3-tert-butylureido)-18-(7-methoxy-2-phenyl-quinolin-4-yloxy)-2,15-dioxo-3,16-diazatricyclo[14.3.0.0^4,6]nona-dec-7-ene-4-carbonyl]amide] | < 50 nM | < 50 nM
8 | COc1ccc2c(O[C@@H]3C[C@H]4C(=O)N[C@]5(C(=O)NS(=O)(=O)C6CC6)CC5/C=C/CCC[C@H](NC(=O)OC(C)(C)C)C(=O)N4C3)cc(-c3ccccc3)nc2c1 (stereo partly drawn) [Compound 3, (1S,4R,6S,12S,16R)-7-trans-[4-Cyclopropanesulfonyl-aminocarbonyl-16-(7-methoxy-2-phenylquinolin-4-yloxy)-2,13-dioxo-3,14-diazatricyclo[12.3.0.0^4,6]heptadec-7-en-12-yl]carbamic acid tert-butyl ester] | < 50000 nM | < 5000 nM
9 | COc1ccc2c(O[C@@H]3C[C@H]4C(=O)N[C@]5(C(=O)NS(=O)(=O)C6CC6)CC5/C=C/CC[C@H](N)C(=O)N4C3)cc(-c3ccccc3)nc2c1 (stereo partly drawn) [Compound 2, (1S 4R,6S,11S,15R)-7-trans-Cyclopropanesulfonic acid [11-amino-15-(7-methoxy-2-phenylquinolin-4-yloxy)-2,12-dioxo-3,13-diazatricyclo-[11.3.0.0^4,6]hexadec-7-ene-4-carbonyl]amide dihydrochloride] |  | < 5000 nM
10 | COc1ccc2c(O[C@@H]3C[C@H]4C(=O)N[C@]5(C(=O)NS(=O)(=O)C6CC6)CC5/C=C/CCC[C@H](N)C(=O)N4C3)cc(-c3ccccc3)nc2c1 (stereo partly drawn) [Compound 4, (1S,4R,6S,12S,16R)-7-trans-Cyclopropanesulfonic acid [12-amino-16-(7-methoxy-2-phenylquinolin-4-yloxy)-2,13-dioxo-3,14-diazatricyclo [12.3.0.0^4,6]heptadec-7-ene-4-carbonyl]amide dihydrochloride] |  | < 50000 nM
